Data taken from ChEMBL document CHEMBL5724696, “Autophagy assay results for EUbOPEN Chemogenomics Library” (2024).
Several values for one entry are separate records, joined by “and”; a condition that tells them apart may be missing. Equal values may be shown once.

What was measured:
U2OS [1] = assay: (§1) Here: values are normalized to the positive (DMSO; basel flux = defined as 100% suppression) and negative (250nM Torin1; mTOR inhibitor; maximal inducer of autophagy defined as 0% suppression) control compounds and represented as % of ER-phagy suppression. […] The impact of autophagy induction on cells is complex and depends on the affected target. […] Of note, treatment concentrations may be sub-optimal for specific compounds, leading to false negative annotations.; type: functional, Homo sapiens; conditions: Compound Concentration 1 uM, Culturing Media DMEM, 1 % Penicillin/Streptomycin, 10% Fetal bovin serum Add-On: blasticidin, Screening Media Control DMEM, 10% Fetal bovin serum Add-On: 1 µg/ml Doxycyclin, Screening Media Samples DMEM
U2OS [2] = assay: as §1; type: functional, Homo sapiens; conditions: Compound Concentration 1 uM, Culturing Media DMEM, 1 % Penicillin/Streptomycin, 10% Fetal bovin serum Add-On: blasticidin, Screening Media Control DMEM, 10% Fetal bovin serum Add-On: 1 µg/ml Doxycyclin, Screening Media Samples DMEM; remark: listed apart in the source
[3] = Timepoint 12 hours, 10% Fetal bovin serum Add-On: 1 µg/ml Doxycyclin 250nM Torin1
[4] = Timepoint 24 hours, 10% Fetal bovin serum Add-On: 1 µg/ml Doxycyclin 250nM Torin1
[5] = Timepoint 36 hours, 10% Fetal bovin serum Add-On: 1 µg/ml Doxycyclin 250nM Torin1
[6] = Timepoint 60 hours, 10% Fetal bovin serum Add-On: 1 µg/ml Doxycyclin 250nM Torin1
[7] = Timepoint 54 hours, 10% Fetal bovin serum Add-On: 1 µg/ml Doxycyclin 250nM Torin1
[8] = Timepoint 12 hours, 10% Fetal bovin serum Add-On: 1 µg/ml Doxycyclin 250nM Torin1, 12 h, 1 µM
[9] = Timepoint 24 hours, 10% Fetal bovin serum Add-On: 1 µg/ml Doxycyclin 250nM Torin1, 24 h, 1 µM
[10] = Timepoint 36 hours, 10% Fetal bovin serum Add-On: 1 µg/ml Doxycyclin 250nM Torin1, 36 h, 1 µM

| SMILES | ER-phagy suppression (U2OS [1]; [3]) [%] | ER-phagy suppression (U2OS [1]; [4]) [%] | ER-phagy suppression (U2OS [1]; [5]) [%] | ER-phagy suppression (U2OS [1]; [6]) [%] | ER-phagy suppression (U2OS [2]; [3]) [%] | ER-phagy suppression (U2OS [2]; [4]) [%] | ER-phagy suppression (U2OS [2]; [5]) [%] | ER-phagy suppression (U2OS [2]; [7]) [%] | ER-phagy suppression (U2OS [1]; [8]) | ER-phagy suppression (U2OS [1]; [9]) | ER-phagy suppression (U2OS [1]; [10]) | ER-phagy suppression (U2OS [1]; Timepoint 60 hours, 10% Fetal bovin serum Add-On: 1 µg/ml Doxycyclin 250nM Torin1, 60 h, 1 µM) | ER-phagy suppression (U2OS [2]; [8]) | ER-phagy suppression (U2OS [2]; [9]) | ER-phagy suppression (U2OS [2]; [10]) | ER-phagy suppression (U2OS [2]; Timepoint 54 hours, 10% Fetal bovin serum Add-On: 1 µg/ml Doxycyclin 250nM Torin1, 54 h, 1 µM) |
| --- | --- | --- | --- | --- | --- | --- | --- | --- | --- | --- | --- | --- | --- | --- | --- | --- |
| Cc1cnc(-c2cc(Cl)ccc2F)cc1-n1c(=O)n(CC(N)=O)c2cnccc21 [TP-008] | -1.571 | -13.0499 | -21.2168 | -35.4053 | -24.3103 | -37.6592 | -45.8786 | -56.4398 |  |  |  |  |  |  |  |  |
| COc1cc(Nc2ncc3c(n2)-c2ccc(Cl)cc2C(c2c(F)cccc2OC)=NC3)ccc1C(=O)O [ALISERTIB] |  |  |  |  |  |  |  |  | 32.5772% and 15.1943% | 46.3416% and 31.463% | 37.5206% and 17.8935% | 42.3508% and 18.9115% | 17.2717% and 22.6318% | 12.1028% and 15.999% | -4.94% and 1.582% | 5.417% and 8.819% |
| C[C@@H]1CN(c2cc(-c3nn(C)c4ccc(OC5(C)CC5)cc34)ncn2)C[C@H](C)O1 [MLi-2-NC] | 30.6608 | 32.7197 | 14.6999 | 6.822 | 6.526 | -15.2571 | -21.814 | -27.1974 |  |  |  |  |  |  |  |  |
| Cn1ccc(Cn2cnc(-c3ccc(F)cc3)c2-c2ccnc3[nH]ccc23)n1 | -25.1326 | -19.5738 | 5.753 | 8.035 | 3.096 | -2.866 | 1.074 | 6.853 |  |  |  |  |  |  |  |  |
| O=C(O)c1ccc(-c2c[nH]c3ncc(-c4ccccc4)cc23)cc1C1CCCC1 [GSK-650394] | -3.529 | -12.5069 | 3.383 | 9.397 | 10.3251 | -3.71 | -12.9295 | -11.6174 |  |  |  |  |  |  |  |  |
| CN(C)C(=O)N1CC[C@H](NC2=Nc3cc(F)ccc3N(CC(F)F)c3ccc(Cl)cc32)C1 | -14.7963 | -22.2791 | -19.1413 | -31.4062 | -18.0128 | -30.8641 | -36.8246 | -25.6155 |  |  |  |  |  |  |  |  |
| Cc1ccc(C(=O)Nc2cccc(C(F)(F)F)c2)cc1Nc1nc(-c2cccnc2)nc2c1cnn2C | 26.4951 | 22.3835 | 22.4378 | 22.9955 | 20.046 | 2.016 | -6.3 | -2.2204 |  |  |  |  |  |  |  |  |
| COc1cc(N(C)c2ccnc3ccc(C(F)(F)F)cc23)cc(OC)c1OC | -0.7345 | 0.8414 | -10.6797 | -10.2278 | 8.809 | -16.6853 | -22.3535 | -19.7391 |  |  |  |  |  |  |  |  |
| CN([C@@H](Cc1ccc(OS(=O)(=O)c2cccc3cnccc23)cc1)C(=O)N1CCN(c2ccccc2)CC1)S(=O)(=O)c1cccc2cnccc12 | 11.3745 | -2.8225 | -4.115 | -4.142 | -1.9452 | -10.891 | -4.8506 | -2.408 |  |  |  |  |  |  |  |  |
| CC(C)C(=O)Nc1n[nH]c2cc(-c3cccc(NS(=O)(=O)C4CC4)c3)ccc12 | 0.1153 | 4.089 | -6.11 | -14.0127 | 3.579 | -4.784 | -8.796 | -3.527 |  |  |  |  |  |  |  |  |
| CN1C(=O)[C@@H](N2CCc3c(nn(Cc4ccccc4)c3Br)C2=O)COc2ccccc21 [TP-030-2] | -11.1908 | -12.0413 | -22.9996 | -25.2811 | 7.634 | -14.2706 | -10.5345 | -6.796 |  |  |  |  |  |  |  |  |
| CN(c1ncccc1CNc1nc(Nc2ccc3c(c2)CC(=O)N3)ncc1C(F)(F)F)S(C)(=O)=O.O=S(=O)(O)c1ccccc1 | -10.0797 | -6.87 | 0.4518 | 0.1589 | 6.672 | -24.1053 | -34.2095 | -20.8605 |  |  |  |  |  |  |  |  |
| CN(C)[C@H]1C[C@H](n2cnc(-c3ccc(F)cn3)c2-c2ccnc3[nH]ccc23)C1 | 23.5482 | 2.98 | 12.4603 | 17.3235 | 22.3816 | 21.0505 | 31.8624 | 38.0418 |  |  |  |  |  |  |  |  |
| CN1CCC(COc2cnc(-c3cccc(Cn4nc(-c5cccc(C#N)c5)ccc4=O)c3)nc2)CC1 [TEPOTINIB] | -9.035 | 9.179 | 17.9604 | 23.3369 | 4.664 | -2.8541 | -6.061 | -17.192 |  |  |  |  |  |  |  |  |
| Cc1cc(C)c(-n2ccn3nc(-c4cccnc4)cc23)cc1NC(=O)c1cc(C#N)cc(S(F)(F)(F)(F)F)c1 [BAY-826] | 10.7254 | 6.3786 | 7.428 | 6.537 | 21.4229 | 9.146 | 4.6 | 19.8518 |  |  |  |  |  |  |  |  |
| CCCCNc1ncc(-c2ccc(CN3CCOCC3)cn2)c(N[C@H]2CC[C@H](O)CC2)n1 | -8.957 | -7.3145 | 4.583 | 12.8118 | -5.509 | -21.7145 | -31.345 | -19.8135 |  |  |  |  |  |  |  |  |
| O=C(O)CSc1ncnc2sc(-c3cc4ccccc4s3)cc12 | -22.3534 | -5.037 | -13.712 | -10.482 | -2.052 | -18.7288 | -21.1701 | -12.8701 |  |  |  |  |  |  |  |  |
| C[C@@H]1COCCN1c1cc(C2([S@](C)(=N)=O)CC2)nc(-c2cc[nH]c3nccc2-3)n1 [CERALASERTIB] | -20.381 | -14.6462 | -13.688 | -10.6655 | 5.203 | -10.6428 | -11.7869 | -16.7098 |  |  |  |  |  |  |  |  |
